# Tested on: PD1
# Experiment: Validation of gRNAs in HEK293T cells, Surveyor digest and densitometry, PD1 site
# Format: cell-based, human
# Conditions: PD1 target gene site, 3 days
# Description: (§1) HEK293T cells were plated out at a density of 1×10^5 cells per well in a 24 well plate. 150 uL of Opti-MEM medium was combined with 1.5 ug of gRNA plasmid, 1.5 ug of Cas9 plasmid. Another 150 uL of Opti-MEM medium was combined with 5 ul of Lipofectamine 2000 Transfection reagent (Invitrogen). The solutions were combined together and incubated for 15 minutes at room temperature. The DNA-lipid complex was added dropwise to wells of the 24 well plate. Cells were incubated for 3 days at 37° C. and genomic DNA was collected using the GeneJET Genomic DNA Purification Kit (Thermo Scientific). Activity of the gRNAs was quantified by a Surveyor Digest, gel electrophoresis, and densitometry (FIG. 60 and FIG. 61) (Guschin, D. Y., et al., “A Rapid and General Assay for Monitoring Endogenous Gene Modification,” Methods in Molecular Biology, 649: 247-256 (2010)).
# (§2) The percentage numbers in Table 7 indicated the percent of gene modifications in the sample.
row,Substance,efficiency of Cas9/gRNA pair in creating double strand break (percent of gene modifications) [%]
1,PD1 gRNA#6: guide RNA to PD-1; sense oligo SEQ ID 43 CACCGACGGAAGCGGCAGTCCTGGC,25.91
2,PD1 gRNA#5: guide RNA to PD-1; sense oligo SEQ ID 41 CACCGCGTTGGGCAGTTGTGTGACA,30.60
3,PD1 gRNA#4: guide RNA to PD-1; sense oligo SEQ ID 39 CACCGAGGCGGCCAGCTTGTCCGTC,20.87
4,PD1 gRNA#2: guide RNA to PD-1; sense oligo SEQ ID 35 CACCGCCTGCTCGTGGTGACCGAAG,>60
5,PD1 gRNA#1: guide RNA to PD-1; sense oligo SEQ ID 33 CACCGCGGAGAGCTTCGTGCTAAAC,10.83

# Tested on: AAVS1
# Experiment: Validation of gRNAs in HEK293T cells, Surveyor digest and densitometry, AAVS1 site
# Format: cell-based, human
# Conditions: AAVS1 target gene site, 3 days
# Description: as §1, §2
row,Substance,efficiency of Cas9/gRNA pair in creating double strand break (percent of gene modifications) [%]
1,AAVS1 gRNA#6: guide RNA to AAVS1; sense oligo SEQ ID 29 CACCGCGGGCCCCTATGTCCACTTC,39.62
2,AAVS1 gRNA#2: guide RNA to AAVS1; sense oligo SEQ ID 21 CACCGACCCCACAGTGGGGCCACTA,27.10
3,AAVS1 gRNA#1: guide RNA to AAVS1; sense oligo SEQ ID 19 CACCGTGGGGGTTAGACCCAATATC,32.99
4,AAVS1 gRNA#5: guide RNA to AAVS1; sense oligo SEQ ID 27 CACCGCCGGCCCTGGGAATATAAGG,27.55

# Tested on: CCR5
# Experiment: Validation of gRNAs in HEK293T cells, Surveyor digest and densitometry, CCR5 site
# Format: cell-based, human
# Conditions: CCR5 target gene site, 3 days
# Description: as §1
# (§3) The efficiencies of Cas9 in creating double strand break (DSB) with the assistance of different gRNA sequences were listed in Table 7. The percentage numbers in Table 7 indicated the percent of gene modifications in the sample.
row,Substance,efficiency of Cas9/gRNA pair in creating double strand break (percent of gene modifications) [%]
1,CCR5 gRNA#5: guide RNA to CCR5; sense oligo SEQ ID 69 CACCGATCTGGTAAAGATGATTCC,36.07
2,CCR5 gRNA#3: guide RNA to CCR5; sense oligo SEQ ID 65 CACCGGTGACAAGTGTGATCACTT,55.98
3,CCR5 gRNA#4: guide RNA to CCR5; sense oligo SEQ ID 67 CACCGACACAGCATGGACGACAGCC,45.99
4,CCR5 gRNA#2: guide RNA to CCR5; sense oligo SEQ ID 63 CACCGTCATCCTCCTGACAATCGAT,>60
5,CCR5 gRNA#1: guide RNA to CCR5; sense oligo SEQ ID 61 CACCGACAATGTGTCAACTCTTGAC,21.47
6,CCR5 gRNA#6: guide RNA to CCR5; sense oligo SEQ ID 71 CACCGTTGTATTTCCAAAGTCCCAC,33.17

# Tested on: HPRT
# Experiment: Validation of gRNAs in HEK293T cells, Surveyor digest and densitometry, HPRT site
# Format: cell-based, human
# Conditions: HPRT target gene site, 3 days
# Description: as §1, §3
row,Substance,efficiency of Cas9/gRNA pair in creating double strand break (percent of gene modifications)
1,HPRT gRNA#4: guide RNA to HPRT; sense oligo SEQ ID 11 CACCGTAAATTTCTCTGATAGACTA,<5%
2,HPRT gRNA#3: guide RNA to HPRT; sense oligo SEQ ID 9 CACCGACAAAAAAATTAGCCGGGTG,<1%
3,HPRT gRNA#6: guide RNA to HPRT; sense oligo SEQ ID 15 CACCGGTCTCGAACTCCTGAGCTC,<5%
4,HPRT gRNA#5: guide RNA to HPRT; sense oligo SEQ ID 13 CACCGTGTTTCAATGAGAGCATTAC,<1%
5,HPRT gRNA#1: guide RNA to HPRT; sense oligo SEQ ID 5 CACCGCACGTGTGAACCAACCCGCC,27.85% ^
6,HPRT gRNA#2: guide RNA to HPRT; sense oligo SEQ ID 7 CACCGAAACAACAGGCCGGGCGGGT,30.04% ^

# Tested on: CTLA4
# Experiment: Validation of gRNAs in HEK293T cells, Surveyor digest and densitometry, CTLA4 site
# Format: cell-based, human
# Conditions: CTLA4 target gene site, 3 days
# Description: as §1, §3
row,Substance,efficiency of Cas9/gRNA pair in creating double strand break (percent of gene modifications) [%]
1,CTLA4 gRNA#4: guide RNA to CTLA4; sense oligo SEQ ID 53 CACCGAGGTTCACTTGATTTCCAC,40.13
2,CTLA4 gRNA#6: guide RNA to CTLA4; sense oligo SEQ ID 57 CACCGCTGGCGATGCCTCGGCTGC,36.93
3,CTLA4 gRNA#1: guide RNA to CTLA4; sense oligo SEQ ID 47 CACCGCCGGGTGACAGTGCTTCGGC,40.96
4,CTLA4 gRNA#5: guide RNA to CTLA4; sense oligo SEQ ID 55 CACCGCCGCACAGACTTCAGTCACC,15.90
5,CTLA4 gRNA#2: guide RNA to CTLA4; sense oligo SEQ ID 49 CACCGTGCGGCAACCTACATGATG,56.10
6,CTLA4 gRNA#3: guide RNA to CTLA4; sense oligo SEQ ID 51 CACCGCTAGATGATTCCATCTGCAC,39.33
